Source: US10512667B2, “Compositions and methods for treating conditions related to adrenocortical activity and/or excessive steroid production” (The Regents of the University of Michigan, priority 2017, dated 2019)
Entries after “also recorded” stand apart in the source; their conditions may differ.

Experiments:
BD140C cells [1] = assay: Caspase 3/7 activity (Apo-ONE); assay type: cell-based
Description: (§1) The samples were incubated for 18 h at room temperature in the dark. The fluorescence was measured using a SpectraMax M5 microplate reader with a 0.5 s acquisition time.

H295R cells [2] = assay: Caspase 3/7 activity (Apo-ONE); assay type: cell-based; details: H295R cells
Description: as §1

ABCA1 = assay: Transcript measurement by qPCR in H295R cells; assay type: cell-based
Description: (§2) mRNA was isolated (Qiagen), and was reverse transcribed using the Transcriptor First Strand cDNA synthesis kit (Roche). The relative amounts of cDNAs corresponding to the indicated transcripts were quantified using qPCR assays with specific primers (Table 2).
(§3) H295R cells were seeded in 6-well tissue culture plates (Corning #3506) at a density of 5 X105 per well. After 48 h, the compound(s) indicated were added, and the cells were cultured for the indicated time. The cells were harvested in 1.35 ml culture medium with trypsin. The cells were collected by centrifugation and lysed in 350 μl of RLT buffer (Qiagen) with β-mercaptoethanol. mRNA extraction and DNase treatment were performed according to the manufacturer's protocol (Qiagen). All RNA samples had 260/280 ratios greater than 1.5. The same amount of RNA ranging from 0.1 to 0.5 μg was used for reverse transcription using the Roche Transcriptor First Strand cDNA synthesis kit (Roche #04897030001) using the manufacturer's protocol. SYBR Green I-based real-time qPCR assays were performed using a Roche LightCycler480 instrument. The levels of transcripts in different samples were normalized by the levels of RPL9 transcripts.

CYP17A1 = assay: Transcript measurement by qPCR in H295R cells; assay type: cell-based; details: H295R cells cultured with ATR-101
Description: as §2, §3

CHOP = assay: Transcript measurement by qPCR in H295R cells; assay type: cell-based; details: 4 h
Description: as §2, §3

ABCG1 = assay: Transcript measurement by qPCR in H295R cells; assay type: cell-based
Description: as §2, §3

SULT2A1 = assay: Transcript measurement by qPCR in H295R cells; assay type: cell-based; details: H295R cells cultured with ATR-101
Description: as §2, §3

H295R cells [3] = assay: Resazurin reducing potential; assay type: cell-based; details: 32 μM ATR-101
Description: FIG. 4F: […] The cells were cultured with DMSO vehicle or 32 μM ATR-101 alone, or together with 2 mM MβCD. Resazurin fluorescence intensity was measured using a microplate reader at the indicated times at 37 C. The background signal of wells without resazurin was subtracted. […] DMSO control, *P<0.05).

ACC cell xenografts = details: nude mice; cited from earlier work
BD140C cells [4] = assay: Visualization of NBD-cholesterol esterification; assay type: cell-based; details: compound 2 h then 2 h with NBD-cholesterol
Description: (§4) The cells were seeded in 96-well ibiTreat μ-Plates and allowed to adhere for 48 h prior to the start of each experiment. Cholesterol was detected in fixed cells by incubating with 100 μg/ml filipin III at 37 C for 2 h. The bound filipin III was imaged by fluorescence microscopy using 377/11 nm excitation and 447/60 nm emission wavelengths. Images were captured using either a 4× or a 60× objective. Cholesterol esterification was visualized by culturing the cells with 1 μM NBD-cholesterol for 2 h following incubation with the indicated compounds. NBD-cholesterol esters were imaged by fluorescence microscopy using 485/20 nm excitation wavelengths. Images were captured using either a 20× or a 60× objective.
(§5) The cells were seeded in 96-well ibiTreat μ-Plates (Ibidi) in 100 μl at a density of 50,000 cells per well. […] 5 μl of NBD-cholesterol was added to each well to produce a final concentration of 1 μM. When NBD-cholesterol is esterified and localized to cytoplasmic lipid droplets, it produces bright fluorescent foci in the cell. The inhibition of ACAT activity prevents fluorescent focus formation by NBD-cholesterol (see, e.g., Lada, et al., 2004 J Lipid Res, 45, 378-86). After 1.5 h, 5 μl of Hoechst 33342 was added to each well to produce a final concentration of 3 μg/ml. After 30 min, the medium was replaced with fresh medium. NBD-cholesterol esterification was visualized by fluorescence microscopy using either 485/20 nm (NBD) or 387/11 nm (Hoechst) excitation wavelengths and images were captured using either a 60× oil objective or a 20× objective.

H295R cells [5] = assay: Visualization of NBD-cholesterol esterification; assay type: cell-based; details: compound 2 h then 2 h with NBD-cholesterol, hydrochloride
Description: as §4, §5

MDR1 = biological target: T1, MDR1 (Homo sapiens, UniProt P08183); assay: Doxorubicin accumulation / clearance in H295R cells; assay type: cell-based; details: 25 μM doxorubicin, 2 h
T1 construct: measured the accumulation of doxorubicin in H295R cells; endogenous in cells; host or cells: H295R adrenocortical carcinoma cells
Description: The medium was removed and immediately replaced with 100 μl of fresh media and intracellular doxorubicin fluorescence was visualized by fluorescence microscopy using a 20× objective.

cholesterol-rich tissues = details: cynomologous monkeys; cited from earlier work

For `CC(C)c1cccc(C(C)C)c1NC(=O)NCC1(c2ccc(N(C)C)cc2)CCCC1.Cl` [ATR-101, N-(2,6-bis(1-methylethyl)phenyl)-N′-((1-(4-(dimethylamino)phenyl)cyclopentyl)methyl)urea hydrochloride], the “caspase 3/7 activity, compound alone” value (BD140C cells [1]; 4 h) was “increased the caspase 3/7 activity”, the “caspase 3/7 activity, compound alone” value (BD140C cells [1]; 24 h) was “increased the caspase 3/7 activities” and the “time after ATR-101 addition at which caspase activation was detected” value (H295R cells [2]; 100 μM ATR-101) was 15 min. For the same compound, the “caspase 3/7 activity, compound alone” value (H295R cells [2]; serum-containing medium, 4 h) was “increased the caspase 3/7 activity”, the “caspase 3/7 activity, compound alone” value (H295R cells [2]; serum-containing medium, 24 h) was “increased the caspase 3/7 activities” and the “caspase 3/7 activity, compound alone” value (H295R cells [2]; serum-free medium, 4 h) was “caused ATP depletion and caspases activation with the same potency”. For the same compound, the ABCA1 transcript level (ABCA1; 4 h) was “inhibited”, the ABCA1 transcript level (ABCA1; within an hour after addition) was “reduced” and the CYP17A1 transcript level (CYP17A1) was “reduced”. For the same compound, the CHOP transcript level (CHOP) was “activated”, the ABCG1 transcript level (ABCG1; 4 h) was “inhibited” and the ABCG1 transcript level (ABCG1; within an hour after addition) was “reduced”. The SULT2A1 transcript level (SULT2A1) was “reduced”, the resazurin fluorescence (H295R cells [3]) was “sustained increase in resazurin fluorescence” and the “establishment and growth of ACC cell xenografts” value (ACC cell xenografts) was “inhibits the establishment and impedes the growth”. The “NBD-cholesterol esterification and accumulation in lipid droplets” value (BD140C cells [4]) was “inhibited NBD-cholesterol esterification”, the “NBD-cholesterol esterification and accumulation in lipid droplets” value (H295R cells [5]) was “inhibits NBD-cholesterol esterification; also recorded: eliminated both the intense foci and the diffuse fluorescence” and the doxorubicin accumulation (MDR1; 20 μM compound) was “increased doxorubicin accumulation”. For the same compound, the “doxorubicin accumulation in the presence of MβCD” value (MDR1; 100 μM ATR-101, 4 mM MβCD) was “caused doxorubicin accumulation in the presence of MβCD” and the “tissue distribution of toxicity” value (cholesterol-rich tissues) was “limited to cholesterol-rich tissues, including the adrenal cortex, the corpus luteum, and sebaceous glands”.
